Test results from patent publication US20070207946A1, “Dipeptidyl peptidase IV inhibitors and their uses for lowering blood pressure levels” (priority 2001, published 2007).

Tests used:
[1] = test system: Dipeptidyl Peptidase I (DP I, Cathepsin C); experiment: Cross reacting enzymes - dipeptidyl peptidase I; assay type: biochemical; conditions: concentration range 1*10^−5 M-1*10^−7M; MES buffer pH5.6
Method: DP I or cathepsin C is a lysosomal cysteine protease which cleaves off dipeptides from the N-terminus of their substrates (Gutman, H. R. & Fruton, J. S., 1948, J. Biol: Chem., 174, 851-858). It is classified as a cysteine protease. The enzyme used was purchased from Qiagen (Qiagen GmbH, Hilden, Germany). In order to get a fully active enzyme, the enzyme was diluted 1000 fold in MES buffer pH5.6 (40 mM MES, 4 mM DTT, 4 mM KCl, 2 mM EDTA, 0.015% Brij) and pre-incubated for 30 min at 30° C.
50 μl glutaminyl pyrrolidine or glutaminyl thiazolidine in a concentration range of 1*10^−5 M-1*10^−7M were admixed with 110 μl buffer-enzyme-mixture. The assay mixture was pre-incubated at 30° C. for 15 min. After pre-incubation, 100 μl histidylseryl-[…]-nitroaniline (2*10^−5M) was added and measurement of yellow color development due to β-nitroaniline release was performed at 30° C. and […] for 10 min., using a plate reader (HTS7000 plus, Applied Biosystems, Weiterstadt, Germany).
The IC50-values were calculated using Graphit 4.0.15 (Erithacus Software, Ltd., UK).

[2] = target: T1, recombinant human prolyl oligopeptidase (Homo sapiens, UniProt P48147); experiment: Cross reacting enzymes - prolyl oligopeptidase; assay type: biochemical; conditions: concentration range 1*10^−4M-5*10^−8 M; pH7.6
T1 construct: made in house; host or cells: E. coli
T1 sequence (P48147 1-710): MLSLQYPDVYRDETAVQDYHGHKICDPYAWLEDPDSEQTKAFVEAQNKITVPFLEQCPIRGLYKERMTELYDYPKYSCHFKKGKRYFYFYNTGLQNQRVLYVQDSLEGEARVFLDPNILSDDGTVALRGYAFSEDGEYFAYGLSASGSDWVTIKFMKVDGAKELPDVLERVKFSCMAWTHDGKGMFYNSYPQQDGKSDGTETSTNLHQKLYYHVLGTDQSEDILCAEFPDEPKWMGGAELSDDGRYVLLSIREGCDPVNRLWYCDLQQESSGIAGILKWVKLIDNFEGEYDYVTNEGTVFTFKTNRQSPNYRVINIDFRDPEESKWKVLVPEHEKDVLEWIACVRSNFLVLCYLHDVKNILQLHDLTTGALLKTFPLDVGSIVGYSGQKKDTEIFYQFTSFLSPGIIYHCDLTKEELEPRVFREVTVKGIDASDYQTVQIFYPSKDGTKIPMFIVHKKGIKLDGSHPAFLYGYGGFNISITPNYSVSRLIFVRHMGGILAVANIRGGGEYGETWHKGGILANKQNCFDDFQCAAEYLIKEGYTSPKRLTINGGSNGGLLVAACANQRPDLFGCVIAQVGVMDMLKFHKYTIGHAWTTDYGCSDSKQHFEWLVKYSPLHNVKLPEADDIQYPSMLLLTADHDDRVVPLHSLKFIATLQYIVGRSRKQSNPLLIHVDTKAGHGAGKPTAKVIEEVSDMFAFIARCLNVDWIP
Method: Substrates are peptides with a molecular weight up to 3000 Da. The enzyme used was a recombinant human prolyl oligopeptidase. Recombinant expression was performed in E. coli under standard conditions as described elsewhere in the state of the art.
100 μl glutaminyl pyrrolidine or glutaminyl thiazolidine in an concentration range of 1*10^−4M-5*10^−8 M were admixed with 100 μl μl buffer solution (40 mM HEPES, pH7.6, 0.015% Brij, 1 mM DTT) and 20 μl POP solution. The assay mixture was pre-incubated at 30° C. for 15 min. After pre-incubation, 50 μl glycylprolylprolyl-4-nitroaniline solution (0.29 mM) was added and measurement of yellow color development due to 4-nitroaniline release was performed at 30° C. and λ=405 nm for 10 min using a plate reader (sunrise, Tecan, Crailsheim, Germany). The IC50-values were calculated using Graphit 4.0.15 (Erithacus Software, Ltd., UK).

## NC(=O)CCC(N)C(=O)N1CCCC1 (centres unmarked) [Gln-Pyrr, glutaminyl pyrrolidine]
[1]
  inhibition of DP I enzyme activity: No inhibition
[2]
  inhibition of POP activity: No inhibition
